Values joined by “and” are separate entries in the source; they are usually repeats but may differ in a detail not shown here. Identical values can stand only once. Like-named read-outs stand apart in the source and are kept apart here.
Molecular target: T1, Gal4-HNF4α (human HNF4α LBD) (Homo sapiens, UniProt P41235)
T1 construct: uniprot entry: P41235-1, residues 142-377; expressed in transfected cells; host or cells: HEK293T
T1 sequence (P41235 142-377): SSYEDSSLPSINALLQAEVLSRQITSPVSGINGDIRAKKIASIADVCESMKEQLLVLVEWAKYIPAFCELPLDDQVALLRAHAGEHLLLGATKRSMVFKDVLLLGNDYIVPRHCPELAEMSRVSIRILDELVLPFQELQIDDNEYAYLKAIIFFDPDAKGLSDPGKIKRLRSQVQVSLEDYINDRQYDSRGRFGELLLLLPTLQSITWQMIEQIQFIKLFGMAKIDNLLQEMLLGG
Experiment: Hybrid Gal4-HNF4α reporter gene assay in transiently transfected HEK293T cells
Type: cell-based

[1] = Table S1, primary screening, 50 µM

Row | SMILES | HNF4a-screening_activity_(mean_of_n=2) [1] | HNF4a-screening_activity_(mean_of_n=2)
1 | NC(=O)COc1ccc(Cl)cc1 [Prestw-Frag-1833, NC(=O)COc1ccc(Cl)cc1] | 1.468 and 0.8655 | 
2 | Cc1ccccc1NC(=O)C(C)N (stereo not drawn) [Prestw-Frag-1856, CC(N)C(=O)Nc1ccccc1C] | 1.062 and 1.114 | 
3 | CS(=O)(=O)Nc1ccccc1Oc1ccccc1 [Prestw-Frag-1861, CS(=O)(=O)Nc1ccccc1Oc1ccccc1] | 1.046 and 0.7818 | 
4 | COC(=O)C(O)(c1ccccc1)C1CCCCC1 (stereo not drawn) [Prestw-Frag-1867, COC(=O)C(O)(C1CCCCC1)c1ccccc1] | 1.91 and 1.155 | 
5 | O=C1Nc2ccccc2Nc2ccccc21 [Prestw-Frag-1904, O=C1Nc2ccccc2Nc2ccccc12] | 1.665 and 0.9141 | 
6 | CCCOc1ccccc1C(=N)N [Prestw-Frag-1910, CCCOc1ccccc1C(N)=N] | 1.045 and 1.109 | 
7 | NCCOC(c1ccc(F)cc1)c1ccc(F)cc1 [Prestw-Frag-1925, NCCOC(c1ccc(F)cc1)c1ccc(F)cc1] | 1.095 and 1.195 | 
8 | CC(C)(C)NCC(O)c1ccccc1 (stereo not drawn) [Prestw-Frag-1929, CC(C)(C)NCC(O)c1ccccc1] | 1.143 | 
9 | OCCCN1CCN(c2ccccc2)CC1 [Prestw-Frag-1944, OCCCN1CCN(CC1)c1ccccc1] | 1.133 | 
10 | OCCN1CCN(c2ccccc2)CC1 [Prestw-Frag-1945, OCCN1CCN(CC1)c1ccccc1] | 1.061 | 
11 | CN1CCN(c2ccccc2)CC1 [Prestw-Frag-1946, CN1CCN(CC1)c1ccccc1] | 1.048 | 
12 | O=C(CCN1CCCCC1)c1ccccc1 [Prestw-Frag-1953, O=C(CCN1CCCCC1)c1ccccc1] | 0.8568 | 
13 | NS(=O)(=O)c1ccc(Cl)cc1 [Prestw-Frag-1977, NS(=O)(=O)c1ccc(Cl)cc1] | 0.8584 | 
14 | CCN(CC)CCOc1ccc(C(C)=O)cc1 [Prestw-Frag-2005, CCN(CC)CCOc1ccc(cc1)C(C)=O] | 1.006 | 
15 | O=C(O)C1(c2ccccc2)CCCC1 [Prestw-Frag-2049, OC(=O)C1(CCCC1)c1ccccc1] | 0.9983 | 
16 | NS(=O)(=O)c1ccc(C(=O)O)cc1 [Prestw-Frag-2123, NS(=O)(=O)c1ccc(cc1)C(O)=O] | 0.9355 | 
17 | CC(C)NCC(O)c1ccccc1 (stereo not drawn) [Prestw-Frag-2168, CC(C)NCC(O)c1ccccc1] | 1.078 | 
18 | COc1ccc(OC)c(C(C)O)c1 (stereo not drawn) [Prestw-Frag-2208, COc1ccc(OC)c(c1)C(C)O] | 1.098 | 
19 | COc1ccc(CN2CCNCC2)cc1 [Prestw-Frag-2212, COc1ccc(CN2CCNCC2)cc1] | 1.195 | 
20 | CS(=O)(=O)c1ccc(CO)cc1 [Prestw-Frag-2234, CS(=O)(=O)c1ccc(CO)cc1] | 0.954 | 
21 | CC(O)(c1ccccc1)c1ccccn1 (stereo not drawn) [Prestw-Frag-2237, CC(O)(c1ccccc1)c1ccccn1] | 0.9394 | 
22 | OC(c1ccccc1)c1ccccn1 (stereo not drawn) [Prestw-Frag-2238, OC(c1ccccc1)c1ccccn1] | 0.8728 | 
23 | CCCCOc1cc(C(=O)OC)ccc1N [Prestw-Frag-2253, CCCCOc1cc(ccc1N)C(=O)OC] | 0.8932 | 
24 | Nc1nc2ccccc2o1 [Prestw-Frag-2256, Nc1nc2ccccc2o1] | 0.8277 | 

Row | SMILES | HNF4a-screening_activity_(mean_of_n=2) [1] | HNF4a-screening_activity_(mean_of_n=2)
25 | NC(=O)c1nc[nH]c1N [Prestw-Frag-2268, NC(=O)c1nc[nH]c1N] | 0.9961 | 
26 | OCc1ccncc1 [Prestw-Frag-2303, OCc1ccncc1] | 0.9833 | 
27 | N=C(N)CSCc1ccccc1 [Prestw-Frag-2348, NC(=N)CSCc1ccccc1] | 1.134 | 
28 | Clc1ccc(CNc2ccccn2)cc1 [Prestw-Frag-2356, Clc1ccc(CNc2ccccn2)cc1] | 1.16 | 
29 | O=C1c2ccccc2CN1c1ccccc1 [Prestw-Frag-2360, O=C1N(Cc2ccccc12)c1ccccc1] | 1.345 | 
30 | CCC(=O)Nc1ccc(CC(=O)O)cc1 [Prestw-Frag-2362, CCC(=O)Nc1ccc(CC(O)=O)cc1] | 0.9958 | 
31 | NC(=O)C(c1ccccc1)c1ccccc1 [Prestw-Frag-2366, NC(=O)C(c1ccccc1)c1ccccc1] | 0.8824 | 
32 | O=C(O)CCC(=O)Nc1ccccc1 [Prestw-Frag-2383, OC(=O)CCC(=O)Nc1ccccc1] | 0.9265 | 
33 | COC(=O)C(O)c1ccccc1 (stereo not drawn) [Prestw-Frag-2423, COC(=O)C(O)c1ccccc1] | 1.193 | 
34 | CCN(CCCCO)C(C)Cc1ccc(OC)cc1 (stereo not drawn) [Prestw-Frag-2440, CCN(CCCCO)C(C)Cc1ccc(OC)cc1] | 1.361 | 
35 | Nc1ccccn1 [Prestw-Frag-2443, Nc1ccccn1] | 1.112 | 
36 | COCCOC(=O)c1ccc(N)cc1 [Prestw-Frag-2453, COCCOC(=O)c1ccc(N)cc1] | 1.565 | 
37 | O=C1CCc2ccccc2N1 [Prestw-Frag-2464, O=C1CCc2ccccc2N1] | 1.314 | 
38 | Nc1ccccc1S(N)(=O)=O [Prestw-Frag-2473, Nc1ccccc1S(N)(=O)=O] | 1.395 | 
39 | CCOc1ccccn1 [Prestw-Frag-2477, CCOc1ccccn1] | 1.372 | 
40 | COC(=O)C(O)(c1ccccc1)C1CCCC1 (stereo not drawn) [Prestw-Frag-2484, COC(=O)C(O)(C1CCCC1)c1ccccc1] | 1.411 | 
41 | CC(=O)N(CCC(=O)O)c1ccccc1 [Prestw-Frag-2487, CC(=O)N(CCC(O)=O)c1ccccc1] | 0.9613 | 
42 | c1ccc2cnccc2c1 [Prestw-Frag-2493, c1ccc2cnccc2c1] | 1.292 | 
43 | COc1ccc(O)cc1O [Prestw-Frag-2499, COc1ccc(O)cc1O] | 1.183 | 
44 | c1cnccn1 [Prestw-Frag-2501, c1cnccn1] | 1.207 | 
45 | CC(=O)c1ccc(O)cc1O [Prestw-Frag-2506, CC(=O)c1ccc(O)cc1O] | 0.9153 | 
46 | OCc1ccc(O)cc1 [Prestw-Frag-2532, OCc1ccc(O)cc1] | 1.028 | 
47 | c1ccc(C2CCNCC2)cc1 [Prestw-Frag-2537, C1CC(CCN1)c1ccccc1] | 0.9586 | 
48 | Sc1nc2ccccc2[nH]1 [Prestw-Frag-2539, Sc1nc2ccccc2[nH]1] | 1.302 | 

Row | SMILES | HNF4a-screening_activity_(mean_of_n=2) [1] | HNF4a-screening_activity_(mean_of_n=2)
49 | O=C(O)c1ccccn1 [Prestw-Frag-2541, OC(=O)c1ccccn1] | 0.9518 | 
50 | Oc1nsnc1N1CCOCC1 [Prestw-Frag-2562, Oc1nsnc1N1CCOCC1] | 1.981 | 
51 | ClC1(Cl)CC1c1ccccc1 (stereo not drawn) [Prestw-Frag-2566, ClC1(Cl)CC1c1ccccc1] | 1.078 | 
52 | COc1ccccc1N1CCN(CCCN)CC1 [Prestw-Frag-2569, COc1ccccc1N1CCN(CCCN)CC1] | 1.212 | 
53 | O=C(O)CNC(=O)c1ccccc1 [Prestw-Frag-2576, OC(=O)CNC(=O)c1ccccc1] | 1.001 | 
54 | O=C(O)COc1ccccc1 [Prestw-Frag-2577, OC(=O)COc1ccccc1] | 1.064 | 
55 | NC(=O)COc1ccccc1 [Prestw-Frag-2578, NC(=O)COc1ccccc1] | 1.034 | 
56 | O=C(O)Cc1ccccc1 [Prestw-Frag-2579, OC(=O)Cc1ccccc1] | 1.086 | 
57 | NC(=O)Cc1ccccc1 [Prestw-Frag-2580, NC(=O)Cc1ccccc1] | 0.9823 | 
58 | NC(=O)c1ccncc1 [Prestw-Frag-2587, NC(=O)c1ccncc1] | 0.9347 | 
59 | Oc1cccc2cccnc12 [Prestw-Frag-2592, Oc1cccc2cccnc12] |  | 0.6969
60 | Clc1cccc2ncccc12 [Prestw-Frag-2593, Clc1cccc2ncccc12] | 0.9438 | 
61 | OC1c2ccccc2CCc2ccccc21 [Prestw-Frag-2600, OC1c2ccccc2CCc2ccccc12] | 0.7017 | 
62 | c1ccc(CCn2ccnc2)cc1 [Prestw-Frag-2608, C(Cn1ccnc1)c1ccccc1] | 0.9707 | 
63 | c1ccc(Cn2ccnc2)cc1 [Prestw-Frag-2620, C(c1ccccc1)n1ccnc1] | 0.9802 | 
64 | c1ccc(C(c2ccccc2)n2cncn2)cc1 [Prestw-Frag-2645, c1ncn(n1)C(c1ccccc1)c1ccccc1] | 0.9885 | 
65 | N#CC1(c2ccc(F)cc2)CCCCC1 [Prestw-Frag-2647, Fc1ccc(cc1)C1(CCCCC1)C#N] | 0.99 | 
66 | CC1(c2ccccc2)NC(=O)NC1=O (stereo not drawn) [Prestw-Frag-2652, CC1(NC(=O)NC1=O)c1ccccc1] | 0.789 | 
67 | Cc1ccc(C#N)c(=O)[nH]1 [Prestw-Frag-2669, Cc1ccc(C#N)c(=O)[nH]1] | 0.9816 | 
68 | O=C1CCCc2[nH]ccc21 [Prestw-Frag-2675, O=C1CCCc2[nH]ccc12] | 1.012 | 
69 | O=C(O)CCc1ncc(-c2ccccc2)o1 [Prestw-Frag-2693, OC(=O)CCc1ncc(o1)-c1ccccc1] | 0.8237 | 
70 | Cc1nc(-c2ccccc2)c(-c2ccccc2)o1 [Prestw-Frag-2695, Cc1nc(c(o1)-c1ccccc1)-c1ccccc1] | 1.374 | 
71 | COc1ccc(C(C)=O)c(O)c1 [Prestw-Frag-2701, COc1ccc(C(C)=O)c(O)c1] | 1.01 | 
72 | Oc1ccccc1C1CCCC1 [Prestw-Frag-2706, Oc1ccccc1C1CCCC1] | 0.8607 | 

— publication PMC7660650, “Chemical Starting Matter for HNF4α Ligand Discovery and Chemogenomics” (International Journal of Molecular Sciences, 2020)
